One experiment concerns the target Rat intestinal maltase. Briefly: In vitro enzyme inhibition, glucose release from disaccharide. Format: biochemical. The note with it: concentration required to inhibit the enzyme to 50% activity. As to the method:
Inhibition of glucosidases and glycosidases was detected as previously described. Briefly, assays were performed at the optimum pH of each enzyme, and appropriate disaccharide was provided as substrate for glucosidase release assays. Release of D-glucose was measured using a Glucose B-test (Wako Diagnostics). Appropriate p-nitrophenyl glycoside was added as substrate for additional glycosidase assays, and assays were stopped by adding 400 mM Na2CO3. Release of p-nitrophenol was measured spectrophotometrically at 400 nm.

Another experiment concerns the target T1, Rat intestinal sucrase (Rattus norvegicus, UniProt P23739).
T1 construct: from tissue; host or cells: rat intestine
The description is as above. Format: biochemical. The note with it: concentration required to inhibit the enzyme to 50% activity; read-out: IC50.

Experiment [1] deals with T2, Rat intestinal isomaltase (Rattus norvegicus, UniProt P23739).
T2 construct: from tissue; host or cells: rat intestine
The experiment is described as above. In kind it is biochemical. The note with it: concentration required to inhibit the enzyme to 50% activity; read-out: IC50.

The target of the next experiment is T3, ER α-glucosidase II (Homo sapiens, UniProt Q14697).
T3 construct: endogenous in cells; host or cells: primary human monocyte-derived macrophages (MDMΦ)
T3 sequence (Q14697 29-944): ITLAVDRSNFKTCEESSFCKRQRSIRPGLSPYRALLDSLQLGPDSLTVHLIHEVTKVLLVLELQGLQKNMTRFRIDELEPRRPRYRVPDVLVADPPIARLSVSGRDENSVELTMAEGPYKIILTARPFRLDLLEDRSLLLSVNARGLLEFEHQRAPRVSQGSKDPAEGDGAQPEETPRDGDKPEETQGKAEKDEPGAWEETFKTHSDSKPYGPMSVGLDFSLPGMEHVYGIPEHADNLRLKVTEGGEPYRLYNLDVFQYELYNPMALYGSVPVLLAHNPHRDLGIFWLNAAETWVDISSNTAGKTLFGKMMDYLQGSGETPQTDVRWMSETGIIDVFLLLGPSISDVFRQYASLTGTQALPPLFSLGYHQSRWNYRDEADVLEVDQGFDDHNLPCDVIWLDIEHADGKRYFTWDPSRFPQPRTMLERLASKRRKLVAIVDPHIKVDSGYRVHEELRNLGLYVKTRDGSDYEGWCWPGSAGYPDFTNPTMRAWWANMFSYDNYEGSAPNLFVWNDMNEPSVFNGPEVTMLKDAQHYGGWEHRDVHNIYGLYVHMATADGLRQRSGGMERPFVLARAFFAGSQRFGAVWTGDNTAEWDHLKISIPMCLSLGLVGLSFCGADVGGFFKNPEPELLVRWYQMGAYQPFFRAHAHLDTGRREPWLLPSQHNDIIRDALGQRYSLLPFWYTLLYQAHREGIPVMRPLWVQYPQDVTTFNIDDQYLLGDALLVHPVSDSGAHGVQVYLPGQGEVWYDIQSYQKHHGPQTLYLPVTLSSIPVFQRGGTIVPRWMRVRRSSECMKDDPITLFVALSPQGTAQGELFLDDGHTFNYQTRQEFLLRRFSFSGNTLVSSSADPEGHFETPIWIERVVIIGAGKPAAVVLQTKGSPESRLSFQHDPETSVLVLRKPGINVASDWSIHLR
T3 sequence (P14314 15-528 partner): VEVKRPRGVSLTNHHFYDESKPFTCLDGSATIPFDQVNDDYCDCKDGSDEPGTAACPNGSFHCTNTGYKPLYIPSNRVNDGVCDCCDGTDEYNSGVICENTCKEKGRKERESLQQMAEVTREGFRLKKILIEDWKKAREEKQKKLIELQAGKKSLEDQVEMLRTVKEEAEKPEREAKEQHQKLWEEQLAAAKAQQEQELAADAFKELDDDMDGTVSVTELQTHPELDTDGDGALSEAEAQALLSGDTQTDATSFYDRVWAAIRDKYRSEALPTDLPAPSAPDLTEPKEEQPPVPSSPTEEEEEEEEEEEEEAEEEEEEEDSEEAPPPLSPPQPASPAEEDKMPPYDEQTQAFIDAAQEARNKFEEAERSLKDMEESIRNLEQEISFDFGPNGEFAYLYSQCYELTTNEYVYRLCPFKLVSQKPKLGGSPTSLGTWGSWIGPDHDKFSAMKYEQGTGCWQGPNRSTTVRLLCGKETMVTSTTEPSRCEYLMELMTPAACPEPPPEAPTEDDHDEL
Briefly: Free oligosaccharide analysis in MDMΦs: Glc1Man4GlcNAc1. Format: cell-based. The note with it: 48 h; for accumulation of Glc1Man4GlcNAc1: 1 μM, MDMΦs, all donors; for FOS representative of ER α-glucosidase II inhibition (Glc1Man4GlcNAc1): MNTD of iminosugar (NB-DNJ 100 μM), uninfected MDMΦs.

The values below come from PMC4790851, “Iminosugars Inhibit Dengue Virus Production via Inhibition of ER Alpha-Glucosidases—Not Glycolipid Processing Enzymes” (PLoS Neglected Tropical Diseases, 2016).

A value given as a limit tells only on which side of the number the result lay.

T1 sequence (P23739 whole entry): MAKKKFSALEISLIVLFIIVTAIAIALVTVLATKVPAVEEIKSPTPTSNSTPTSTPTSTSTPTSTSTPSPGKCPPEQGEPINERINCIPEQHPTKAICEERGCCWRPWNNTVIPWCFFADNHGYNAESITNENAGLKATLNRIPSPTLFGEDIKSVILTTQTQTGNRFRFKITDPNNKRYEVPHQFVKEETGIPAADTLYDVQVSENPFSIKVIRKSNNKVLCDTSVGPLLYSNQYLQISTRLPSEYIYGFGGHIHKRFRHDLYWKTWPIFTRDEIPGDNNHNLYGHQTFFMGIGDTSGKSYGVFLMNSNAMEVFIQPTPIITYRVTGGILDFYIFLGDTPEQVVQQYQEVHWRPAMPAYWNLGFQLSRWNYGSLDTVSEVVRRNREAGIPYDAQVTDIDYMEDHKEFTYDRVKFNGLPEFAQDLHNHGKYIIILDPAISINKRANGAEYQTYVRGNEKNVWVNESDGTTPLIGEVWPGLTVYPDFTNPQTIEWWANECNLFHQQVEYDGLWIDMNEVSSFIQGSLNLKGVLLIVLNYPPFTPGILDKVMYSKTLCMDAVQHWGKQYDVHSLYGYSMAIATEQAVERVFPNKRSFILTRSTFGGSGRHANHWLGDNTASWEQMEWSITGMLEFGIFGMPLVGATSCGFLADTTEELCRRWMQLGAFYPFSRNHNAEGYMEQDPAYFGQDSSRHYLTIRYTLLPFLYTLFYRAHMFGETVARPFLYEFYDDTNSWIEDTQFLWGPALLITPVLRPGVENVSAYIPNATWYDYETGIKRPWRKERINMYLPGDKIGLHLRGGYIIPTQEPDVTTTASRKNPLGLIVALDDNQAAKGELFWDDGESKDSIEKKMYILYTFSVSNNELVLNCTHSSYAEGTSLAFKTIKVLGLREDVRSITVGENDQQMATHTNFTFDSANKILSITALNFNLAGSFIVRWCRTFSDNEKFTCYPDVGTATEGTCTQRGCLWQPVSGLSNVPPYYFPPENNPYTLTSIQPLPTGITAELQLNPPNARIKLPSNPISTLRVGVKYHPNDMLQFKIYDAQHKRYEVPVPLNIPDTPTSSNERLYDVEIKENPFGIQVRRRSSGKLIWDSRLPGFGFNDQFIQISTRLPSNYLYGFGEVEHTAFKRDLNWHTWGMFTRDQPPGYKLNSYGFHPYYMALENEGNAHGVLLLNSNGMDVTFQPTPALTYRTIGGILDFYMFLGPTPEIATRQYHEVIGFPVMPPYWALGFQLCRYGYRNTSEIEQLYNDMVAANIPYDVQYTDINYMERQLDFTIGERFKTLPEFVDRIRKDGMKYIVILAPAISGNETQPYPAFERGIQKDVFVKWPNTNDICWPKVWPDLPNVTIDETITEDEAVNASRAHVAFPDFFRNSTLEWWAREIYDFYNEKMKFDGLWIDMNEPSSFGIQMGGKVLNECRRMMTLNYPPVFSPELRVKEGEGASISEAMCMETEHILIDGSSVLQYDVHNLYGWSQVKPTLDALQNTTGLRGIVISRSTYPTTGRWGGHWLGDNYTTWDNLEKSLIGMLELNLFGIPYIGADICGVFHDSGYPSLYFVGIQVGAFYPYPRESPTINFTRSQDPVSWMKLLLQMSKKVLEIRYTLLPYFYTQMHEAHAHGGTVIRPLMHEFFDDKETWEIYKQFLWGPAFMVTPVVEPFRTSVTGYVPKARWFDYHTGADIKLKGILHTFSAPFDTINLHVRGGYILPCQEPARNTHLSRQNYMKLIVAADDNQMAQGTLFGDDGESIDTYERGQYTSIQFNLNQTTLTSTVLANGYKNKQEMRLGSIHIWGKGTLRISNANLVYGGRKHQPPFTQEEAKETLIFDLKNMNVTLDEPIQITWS
T2 sequence (P23739 whole entry): as above

`CCCC(=O)O[C@H]1CN2CC[C@H](O)[C@@H]2[C@@H](O)[C@@H]1O` [Celgosivir, 6-O-butanoyl-castanospermine]: the half-inhibitory concentration (IC50) – broadly, the point on the concentration scale where inhibition reaches its midpoint – came out at 17 µM against Rat intestinal maltase, 2.7 µM at Rat intestinal sucrase and 29.3 µM in experiment [1]. For the same compound, the “accumulation of Glc1Man4GlcNAc1” value at ER α-glucosidase II is recorded as “led to accumulation of Glc1Man4GlcNAc1”.
`CCCCN1C[C@H](O)[C@@H](O)[C@@H](O)[C@H]1CO` [NB-DGJ]: the IC50 (against Rat intestinal maltase; at Rat intestinal sucrase; in experiment [1]) was greater than 1000 µM in each case. On ER α-glucosidase II, the “FOS representative of ER α-glucosidase II inhibition (Glc1Man4GlcNAc1)” value was “fail to produce detectable ER α-glucosidase associated FOS”.
As to `CCCCN1C[C@H](O)[C@@H](O)[C@H](O)[C@H]1CO` [NB-DNJ, N-butyl-DNJ], the IC50 against Rat intestinal maltase came to 1.1 µM; on Rat intestinal sucrase, 0.44 µM. Further, the “accumulation of Glc1Man4GlcNAc1” value at ER α-glucosidase II is “led to accumulation of Glc1Man4GlcNAc1”. At ER α-glucosidase II, the “FOS representative of ER α-glucosidase II inhibition (Glc1Man4GlcNAc1)” value was “accumulation of peaks representative of inhibition of both α-glucosidases”.
With `CCCCCCCCCN1C[C@H](O)[C@@H](O)[C@@H](O)[C@H]1CO` [NN-DGJ], the IC50 (against Rat intestinal maltase; on Rat intestinal sucrase; in experiment [1]) was greater than 1000 µM each time.
